Legend:
[1] = Particle size and PDI of lipid nanoparticles by dynamic light scattering; assay type: physicochemical; details: lipid nanoparticles with luciferase mRNA; ionizable lipid/cholesterol/DSPC/DMG-PEG2000 50/38.5/10/1.5 mol%
Procedure: (§1) Lipid nanoparticles were prepared by (1) dissolving and mixing ionizable lipid compounds, cholesterol, phospholipids and polyethylene glycolated lipids in ethanol at (molar percentages) 50%, 38.5%, 10% and 1.5%, respectively; (2) dissolving the mRNA active ingredient in 25 mM sodium acetate solution (pH=4.5); (3) using an automated high-throughput microfluidic system to mix the organic phase containing the lipid mixture and the aqueous phase containing the mRNA component in the flow ratio range of 1:1 to 1:4 at a mixing speed of 10 mL/min to 18 mL/min; (4) the prepared lipid nanoparticles (N/P ratio=6) were diluted with phosphate buffer solution and the nanoparticle solutions were ultrafiltered to the original preparation volume using ultrafiltration tubes (purchased from Millipore) with a cut-off molecular weight of 30 kDa; and (5) the obtained nanoparticles were filtered through a sterile 0.2 μm filter membrane and then stored in a sealed glass vial at low temperature.
(§2) The particle size and particle size dispersity index (PDI) of the prepared lipid nanoparticles were measured using a Zetasizer Pro (purchased from Malvern Instruments Ltd) and a DynaPro NanoStar (purchased from Wyatt) dynamic light scattering instrument. The degree of RNA encapsulation by lipid nanoparticles was characterized by the Encapsulation Efficiency %, which reflects the degree of binding of lipid nanoparticles to RNA fragments. This parameter was measured by the method of Quant-it™ RiboGreen RNA Assay (purchased from Invitrogen). Lipid nanoparticle samples were diluted in TE buffer (10 mM Tris-HCl, 1 mM EDTA, pH=7.5). A portion of the sample solution was removed, to which 0.5% Triton (Triton X-100) was added, and then allowed to stand at 37° C. for 30 minutes. Immediately after the addition of RIBOGREEN® reaction solution, the fluorescence values were read on a Varioskan LUX multifunctional microplate reader (purchased from Thermofisher) at 485 nm for absorption and 528 nm for emission to give the encapsulation efficiency values.

[2] = Encapsulation efficiency of lipid nanoparticles (Quant-it RiboGreen RNA Assay); assay type: physicochemical; details: lipid nanoparticles with luciferase mRNA
Procedure: as §1, §2

[3] = tested on: C57BL/6 mice; experiment: In vivo delivery of luciferase mRNA lipid nanoparticles in mice (bioluminescence imaging); details: intravenous, single dose 0.5 mg/kg luciferase mRNA
Procedure: The delivery effect and safety of nanoparticles encapsulated with luciferase mRNA (Trilink, L-7202) in mice were evaluated. The test mice were SPF-grade C57BL/6 mice, female, 6-8 weeks old, weighing 18-22 g, and were purchased from SPF (Beijing) Biotechnology Co., Ltd. All animals were acclimatized for more than 7 days prior to the experiment, and had free access to food and water during the experiment. The conditions include alternating light and dark for 12/12 h, the indoor temperature of 20-26° C. and the humidity of 40-70%. The mice were randomly grouped. The lipid nanoparticles encapsulated with luciferase mRNA prepared above were injected into mice by intravenous administration at a single dose of 0.5 mg/kg mRNA, and the mice were subjected to in vivo bioluminescence assay using a Small Animal In Vivo Imaging System (IVIS LUMINA III, purchased from PerkinElmer) at 6 h after administration. The assay was performed as follows: D-luciferin solution was prepared in saline at a concentration of 15 mg/mL, and each mouse was given the substrate by intraperitoneal injection. At ten minutes after administration of the substrate, the mice were anesthetized in an anesthesia chamber with isoflurane at a concentration of 2.5%. The anesthetized mice were placed in IVIS for fluorescence imaging, and data acquisition and analysis were performed on the concentrated distribution area of fluorescence.
The in vivo delivery efficiency of lipid nanoparticle carriers was expressed as the mean values of fluorescence intensity and total photon count in different animals within the same subject group, as shown in Table 5-Table 11. Higher values of fluorescence intensity and total photon count indicate higher in vivo delivery efficiency of this mRNA fragment by lipid nanoparticles. The lipid nanoparticles containing the cationic lipids of the present disclosure have good in vivo delivery efficiency.

| Compound | Particle size (nm) [1] | Particle-size distribution (PDI) [1] | Encapsulation efficiency (%) [2] | Total photon count in vivo at 6 hours after administration (Total Flux) [3] |
| --- | --- | --- | --- | --- |
| CCCCCCCCCCCOC(=O)CCCCCN(CCO)CCCCCCC1(C(=O)OC(CCCCCCCC)CCCCCCCC)CCCC1 [22a] | 99.48 nm | 0.010 | 97.25% | 1.74E+10 |
| CCCCCCCCCCOC(=O)CCCCCN(CCO)CCCCCCC(C)(C)C(=O)OC(CCCCCCC)CCCCCCC [23a] | 99.25 nm | 0.011 | 96.30% | 9.84E+10 |
| CCCCCCCCCC(=O)OCC1(CCCCCN(CCO)CCCCCCCC(=O)OCCC(CCCCCC)CCCCCC)CC1 [23b] | 115.70 nm | 0.031 | 93.14% | 3.92E+10 |
| CCCCCCCCCCCCOC(=O)CCCCCN(CCO)CCCCCCC(C)(C)C(=O)OC(CCCCCCCCC)CCCCCCCCC [24a] | 109.53 nm | 0.052 | 88.89% | 3.07E+10 |
| CCCCCCCCCC(=O)OCC1(CCCCCN(CCCCO)CCCCCCCC(=O)OC(CCCCCCCCC)CCCCCCCCC)CC1 [24b] | 83.05 nm | 0.019 | 94.52% | 7.06E+10 |
| CCCCCCCCCOC(=O)CCCCC(C)(C)CCN(CCO)CCCCCCCC(=O)OC(CCCCCCCC)CCCCCCCC [25a] | 86.99 nm | 0.051 | 95.62% | 1.33E+11 |
| CCCCCCCCCC(=O)OCCCCCCCN(CCO)CCCCC(C)(C)COC(=O)OCC(CCCCCCC)CCCCCCC [25b] | 94.39 nm | 0.15 | 95.59% | 1.11E+11 |
| CCCCCCCCCOC(=O)CCCCC(C)(C)CCN(CCO)CCCCCCCC(=O)OCC(CCCCCCC)CCCCCCC [26a] | 106.37 nm | 0.050 | 91.18% | 1.11E+11 |
| CCCCCCCCCOC(=O)CCCCC(C)(C)CCN(CCO)CCCCCCCC(=O)OCCC(CCCCCC)CCCCCC [27a] | 136.43 nm | 0.016 | 93.52% | 4.31E+10 |
| CCCCCCCCCCOC(=O)OCCCCCCN(CCO)CCCCCC(C)(C)COC(=O)CC(CCCCCCC)CCCCCCC [27b] | 91.10 nm | 0.18 | 97.83% | 5.59E+10 |
| CCCCCCCCCCOC(=O)CCCC(C)(C)CCN(CCO)CCCCCCCC(=O)OCCC(CCCCCC)CCCCCC [28a] | 110.30 nm | 0.018 | 93.90% | 4.30E+10 |
| CCCCCCCCCCCOC(=O)OCCCCCN(CCO)CCCCCC(C)(C)COC(=O)CC(CCCCCCC)CCCCCCC [28b] | 94.55 nm | 0.16 | 96.19% | 4.18E+10 |
| CCCCCCCCCCOC(=O)CCC(C)(C)CCCCN(CCCCO)CCCCCCCC(=O)OC(CCCCCCCCC)CCCCCCCCC [29a] | 88.59 nm | 0.012 | 97.30% | 5.46E+10 |
| CCCCCCCCCOC(=O)OCCCCCCCN(CCO)CCCCCC(C)(C)COC(=O)CC(CCCCCCC)CCCCCCC [29b] | 112.43 nm | 0.10 | 96.28% | 3.52E+10 |
| CCCCCCCCCCOC(=O)OCCCCCCN(CCCCO)CCCCCC(C)(C)COC(=O)CC(CCCCCCC)CCCCCCC [30b] | 115.83 nm | 0.08 | 95.02% | 4.03E+10 |
| CCCCCCCCCCOC(=O)OCCCCCN(CCO)CCCCCCC(C)(C)C(=O)OC(CCCCCCCC)CCCCCCCC [31a] | 115.56 nm | 0.11 | 86.08% | 7.04E+10 |
| CCCCCCCCCCCOC(=O)OCCCCCN(CCCCO)CCCCCC(C)(C)COC(=O)CC(CCCCCCC)CCCCCCC [31b] | 118.73 nm | 0.07 | 95.73% | 1.87E+10 |
| CCCCCCCCCOC(=O)OCCCCCCN(CCCO)CCCCCCC(C)(C)C(=O)OC(CCCCCCCC)CCCCCCCC [32a] | 129.00 nm | 0.10 | 83.51% | 1.24E+10 |
| CCCCCCCCCOC(=O)OCCCCCCCN(CCCCO)CCCCCC(C)(C)COC(=O)CC(CCCCCCC)CCCCCCC [32b] | 116.50 nm | 0.16 | 95.31% | 3.52E+10 |
| CCCCCCCCCOC(=O)OCCCCCCN(CCO)CCCCCCC(C)(C)C(=O)OCC(CCCCCCC)CCCCCCC [33a] | 111.60 nm | 0.17 | 86.98% | 1.09E+11 |
| CCCCCCCCCC(=O)OCC(C)(C)CCCCCN(CCO)CCCCCCOC(=O)OCC(CCCCCCCC)CCCCCCCC [33b] | 85.80 nm | 0.15 | 94.85% | 8.23E+10 |
| CCCCCCCCCOC(=O)OCCCCCCN(CCO)CCCCCCC(C)(C)C(=O)OCCC(CCCCCC)CCCCCC [34a] | 116.67 nm | 0.12 | 95.73% | 3.14E+10 |
